For assay [1], the target named is T1, IDO1 (Homo sapiens, UniProt P14902). The experiment in a line: IDO1 Cellular Assay in HeLa Cells Stimulated with IFNγ. It is filed as cell-based. The conditions noted are these: IFNγ 100 ng/mL, 300 uM L-tryptophan, about 48 hours, read-out: IDO HeLa Cell Assay, IC50. As for the experimental part:
Biological Assays IDO1 Cellular Assay in HeLa Cells Stimulated with IFNγ
HeLa cells were cultured in complete HeLa culture medium (90% EMEM, 10% heat-inactivated fetal bovine serum) and expanded to about 1×10^9 cells. The cells were then collected and frozen down at 1×10^7 cells/vial in 1 mL frozen medium (90% complete HeLa culture medium, 10% DMSO).
Compounds to be tested were serially diluted in ten 3-fold steps in DMSO starting from 10 mM DMSO stocks in Echo low volume plate(s). Compound dilutions or DMSO alone were then dispensed from the dilution plate(s) into Greiner black 384-well assay plate(s) (catalog #781086, 50 nL/well) using an Echo 550 acoustic liquid handler (Labcyte).
Frozen HeLa cells were thawed and transferred into HeLa assay medium (99% complete HeLa culture medium, 1% Pen/Strep) with 20 mL medium/vial of cells. The cells were spun down at 250 g in a table top centrifuge for 5 min and suspended in same volume of HeLa assay medium. The cells were then counted and adjusted to a density of 2×10^5 cells/mL in HeLa assay medium. Sterile L-tryptophan were added to the cells with final concentration of 300 uM L-tryptophan. A small aliquot (2 mL/plate) of HeLa cells were set aside and were not treated with IFNγ, to serve as the Max-E control.
HeLa cells with and without IFNγ were dispensed to the respective wells of 384-well assay plates containing the compounds. The plates were incubated for about 48 hours at a 37° C., 5% CO2 incubator. Afterwards, 12 μL of 0.5 M methyl isonipecotate in dimethyl sulfoxide were added into each well and the plates were sealed and incubated at 37° C. without CO2 overnight. The plates were centrifuged for 1 min at 200×g. The resulting fluorescence was measured in a Spectramax plate reader (Molecular Devices) with a 400 nm excitation filter and a 510 nm emission filter.
The fluorescence intensity of each well was corrected for the background observed in wells with non-IFNγ-treated cells and was expressed as a fraction of the intensity observed in wells of IFNγ-treated cells and DMSO only. Potencies were calculated by linear least squares fit to the four parameter logistic IC50 equation.

For assay [2], the target named is T1, IDO1. The assay is described as follows: IDO1 Human Whole Blood Assay. The format is cell-based. Details: Human whole blood was drawn in sodium heparin coated tubes from healthy internal donors; from tissue; host or cells: Human whole blood from healthy donors, stimulated with LPS and IFNγ. The conditions noted are these: LPS and IFNγ 100 ng/mL, 18 h, kynurenine by LC/MS/MS. As for the experimental part: IDO1 Human Whole Blood Assay
Compounds to be tested were serially diluted in ten 3-fold steps in DMSO starting from 10 mM. 3 µL of compound dilutions or DMSO alone were then dispensed from the dilution plate into a polypropylene 96-well assay plate containing 97 µL of RPMI medium using an Echo 555 acoustic liquid handler (Labcyte). LPS (lipopolysaccharide) and IFNγ was prepared in RPMI to a 10× of final conc. (1000 ng/mL), final concentration is 100 ng/mL.
Human whole blood was drawn in sodium heparin coated tubes from healthy internal donors. 240 µL of blood was transferred to each of the wells of a v-bottom 96 well plate. 30 µL of compound was transferred from intermediate dilution plate, and incubated for 15 min. 30 μL from stimulants was then transferred to blood and mixed thoroughly. Plate was covered with breathable membrane and incubated at 37° C. for overnight (18 h).
On day 2, isotope labeled standard solutions of kunurenine and tryptophan was made in water at 10× concentration and 30 µL was added to the blood at 3 µM final concentration. The assay plates were centrifuged at 300×G for 10 min with no brake to separate plasma from red blood cells. 60 µL of plasma samples was removed without disturbing red blood cells. Plasma was diluted with RPMI medium in 1:1 ratio and proteins were precipitated out with two volumes of Acetonitrile. The plates were centrifuged at 4000×G for 60 min. 20 µL of supernatant was carefully transferred to a 384 well plate containing 40 µL of 0.1% formic acid in water and analyzed by LC/MS/MS.
LC/MS/MS analyses were performed using Thermo Fisher's LX4-TSQ Quantum Ultra system. This system consists of four Agilent binary high-performance liquid chromatography (HPLC) pumps and a TSQ Quantum Ultra triple quadrupole MS/MS instrument. For each sample, 5 µL were injected onto an Atlantis T3 column (2.1 mm×150 mm, 3 µm particle size) from Waters. The mobile phase gradient pumped at 0.8 mL/min was used to elute the analytes from the column at 25° C. The elution started at 0% B increasing linearly to 25% B at 6.5 min, holding at 25% for 1 min, re-equilibrating to 10 min. Mobile phase A consisted of 0.1% formic acid in water. Mobile phase B consisted of 0.1% of formic acid in acetonitrile. Data was acquired in positive mode using a HESI interface. The operational parameters for the TSQ Quantum Ultra instrument were a spray voltage of 4000 V, capillary temperature of 380° C., vaporizer temperature 400° C., shealth gas 60 arbitrary units, Aux gas 20 arbitrary units, tube lens 85 and collision gas 1.2 mTorr. SRM (selected-reaction monitoring) chromatograms of kynurenine (Q1: 209.2>Q3:94.0) and internal standard (Q1: 215.3>Q3:98.2) were collected for 90 sec. The peak area was integrated by Xcalibur Quan software. The ratios between the kynurenine generated in the reaction and 2D6-Kynurenine spiked-in internal standard were used to generate percentage inhibition and IC50 values. Compounds were titrated and IC50's were calculated by 4 parameter sigmoidal curve fitting formula.

pIC50: −log10 of the molar value.

T1 sequence (P14902 whole entry): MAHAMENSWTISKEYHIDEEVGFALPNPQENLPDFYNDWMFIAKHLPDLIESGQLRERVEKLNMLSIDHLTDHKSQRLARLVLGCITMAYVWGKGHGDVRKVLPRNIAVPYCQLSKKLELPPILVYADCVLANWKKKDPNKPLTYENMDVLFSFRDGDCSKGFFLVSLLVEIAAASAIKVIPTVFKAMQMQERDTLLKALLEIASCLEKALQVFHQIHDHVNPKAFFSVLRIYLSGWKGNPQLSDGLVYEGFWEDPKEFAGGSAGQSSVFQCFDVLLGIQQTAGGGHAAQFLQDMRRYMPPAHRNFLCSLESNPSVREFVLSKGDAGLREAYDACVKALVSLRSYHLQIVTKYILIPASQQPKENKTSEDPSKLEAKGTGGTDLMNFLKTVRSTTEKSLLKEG

What is called pIC50 is −log10 of the IC50, conventionally taken in molar units. For `O=C(Nc1ccc(C2(c3nc4ncc(C(F)(F)F)cc4[nH]3)CCC2)cc1)c1cccc(Cl)c1` [Example 1, 3-Chloro-N-(4-(1-(6-(trifluoromethyl)-1H-imidazo[4,5-b]pyridin-2-yl)cyclobutyl)phenyl)benzamide], the pIC50 was 8.82 on IDO1 [1] and 7.13 against IDO1 [2].

Take `N#Cc1cccc(C(=O)Nc2ccc(C3(c4nc5ncc(C#N)cc5[nH]4)CCC3)cc2)c1` [Example 3, 3-Cyano-N-(4-(1-(6-cyano-1H-imidazo[4,5-b]pyridin-2-yl)cyclobutyl)phenyl)benzamide]: the pIC50 at IDO1 [1] was 8.40; against IDO1 [2] it was 7.12.

With `O=C(Nc1ccc(C2(c3nc4ncccc4[nH]3)CCC2)cc1)c1cccc(Cl)c1` [Example 5, N-(4-(1-(1H-imidazo[4,5-b]pyridin-2-yl)cyclobutyl)phenyl)-3-chlorobenzamide], the pIC50 on IDO1 [1] was 8.55; against IDO1 [2], 6.72.

With `N#Cc1cccc(C(=O)Nc2ccc(C3(c4nc5ccc(C(F)(F)F)cc5[nH]4)CCC3)cc2)c1` [Example 7, 3-cyano-N-(4-{1-[6-(trifluoromethyl)-1H-benzimidazol-2-yl]cyclobutyl}phenyl)benz-amide], the pIC50 at IDO1 [1] was 8.96; at IDO1 [2], 7.39.

Regarding `N#Cc1cccc(C(=O)Nc2ccc(C3(c4nc5ncc(Cl)cc5[nH]4)CCC3)cc2)c1` [Example 10, N-{4-[1-(6-chloro-1H-imidazo[4,5-b]pyridin-2-yl)cyclobutyl]phenyl}-3-cyanobenzamide], the negative-log IC50 (pIC50) was 8.49 on IDO1 [1] and 6.88 against IDO1 [2].

`N#Cc1cccc(C(=O)Nc2ccc(C3(c4nc5ccc(Cl)cc5[nH]4)COC3)cc2)c1` [Example 11, N-(4-(3-(6-chloro-1H-benzo[d]imidazol-2-yl)oxetan-3-yl)phenyl)-3-cyanobenzamide]: the negative logarithm of the IC50 (pIC50) was 8.81 at IDO1 [1] and 7.64 against IDO1 [2].

In the case of `N#Cc1cccc(C(=O)Nc2ccc(C3(c4nc5cc(Br)cnc5[nH]4)CCC3)cc2F)c1` [Example 16, N-(4-(1-(6-bromo-3H-imidazo[4,5-b]pyridin-2-yl)cyclobutyl)-2-fluorophenyl)-3-cyanobenzamide], the results for the pIC50 on IDO1 [1] and against IDO1 [2] were 8.93 and 7.45, respectively.

As to `N#Cc1cccc(C(=O)Nc2ccc(C3(c4nc5cc(C#N)cnc5[nH]4)CCC3)cc2F)c1` [Example 17, 3-Cyano-N-(4-(1-(6-cyano-3H-imidazo[4,5-b]pyridin-2-yl)cyclobutyl)-2-fluorophenyl)benzamide], the pIC50 at IDO1 [1] was 8.77; against IDO1 [2], 6.93.

Turning to `N#Cc1cccc(C(=O)Nc2ccc(C3(c4nc5cc(Cl)cnc5[nH]4)CCC3)cc2F)c1` [Example 18, N-{4-[1-(6-chloro-3H-imidazo[4,5-b]pyridin-2-yl)cyclobutyl]-2-fluorophenyl}-3-cyanobenzamide], the pIC50 at IDO1 [1] was 9.13; at IDO1 [2], 6.99.

As for `N#Cc1cccc(C(=O)Nc2ccc(C3(c4nc5cc(C(F)(F)F)cnc5[nH]4)CCC3)cc2F)c1` [Example 19, 3-cyano-N-(2-fluoro-4-{1-[6-(trifluoromethyl)-3H-imidazo[4,5-b]pyridin-2-yl]cyclobutyl}phenyl) benzamide], the figures for the pIC50 on IDO1 [1] and against IDO1 [2] were 9.03 and 7.36, respectively.

With `O=C(Nc1ccc(C2(c3nc4ncc(Cl)cc4[nH]3)CC(F)(F)C2)cc1)c1cccc(Cl)c1` [Example 24, 3-Chloro-N-(4-(1-(6-chloro-1H-imidazo[4,5-b]pyridin-2-yl)-3,3-difluorocyclobutyl)phenyl)benzamide], the pIC50 is 8.73 at IDO1 [1] and 6.92 against IDO1 [2].

Take `N#Cc1cccc(C(=O)Nc2ccc(C3(c4nc5ccc(Cl)cc5[nH]4)CC(F)C3)cc2)c1` (centres unmarked) [Example 25, N-(4-(1-(6-chloro-1H-benzo[d]imidazol-2-yl)-3-fluorocyclobutyl)phenyl)-3-cyanobenzamide]: the pIC50 was 8.97 at IDO1 [1] and 7.32 at IDO1 [2].

For the molecule `N#Cc1cccc(C(=O)Nc2ccc(C3(c4nc5ccc(C#N)cc5[nH]4)CC(F)C3)cc2)c1` (centres unmarked) [Example 26, 3-Cyano-N-(4-(1-(6-cyano-1H-benzo[d]imidazol-2-yl)-3-fluorocyclobutyl)phenyl)benzamide], the pIC50 is 8.73 at IDO1 [1] and 6.74 against IDO1 [2].

On to `O=C(Nc1cccc(Cl)c1)c1ccc(C2(c3nc4ncc(C(F)(F)F)cc4[nH]3)CCC2)cc1` [Example 27, N-(3-chlorophenyl)-4-(1-(6-(trifluoromethyl)-1H-imidazo[4,5-b]pyridin-2-yl)cyclobutyl)benzamide], for which the results for the pIC50 at IDO1 [1] and on IDO1 [2] were 8.83 and 6.77, respectively.

Consider `Cc1cc(C2CC2)ncc1-c1ccc(C2(c3nc4ncc(C#N)cc4[nH]3)CCC2)cc1` [Example 39, 2-(1-(4-(6-Cyclopropyl-4-methylpyridin-3-yl)phenyl)cyclobutyl)-1H-imidazo[4,5-b]pyridine-6-carbonitrile], for which the pIC50 was 8.44 on IDO1 [1] and 6.74 at IDO1 [2].

For the molecule `Cc1cc(OC(F)F)nc(C)c1-c1ccc(C2(c3nc4cc(C(F)(F)F)cnc4[nH]3)COC2)cc1` [Example 42, 2-(3-{4-[6-(difluoromethoxy)-2,4-dimethylpyridin-3-yl]phenyl}oxetan-3-yl)-6-(trifluoromethyl)-3H-imidazo[4,5-b]pyridine], the pIC50 was 8.67 at IDO1 [1] and 6.35 against IDO1 [2].

With `COc1cc(C)c(-c2ccc(C3(c4nc5cc(C(F)(F)F)cnc5[nH]4)COC3)cc2)c(C)n1` [Example 43, 2-{3-[4-(6-methoxy-2,4-dimethylpyridin-3-yl)phenyl]oxetan-3-yl}-6-(trifluoromethyl)-3H-imidazo[4,5-b]pyridine], the pIC50 on IDO1 [1] is 8.55; at IDO1 [2] it was 6.22.

Take `Cc1cc(OC(F)F)ncc1-c1ccc(C2(c3nc4cc(C(F)(F)F)cnc4[nH]3)COC2)cc1` [Example 44, 2-(3-{4-[6-(difluoromethoxy)-4-methylpyridin-3-yl]phenyl}oxetan-3-yl)-6-(trifluoromethyl)-3H-imidazo[4,5-b]pyridine]: the pIC50 on IDO1 [1] is 8.65; against IDO1 [2] it was 5.78.

In the case of `OCc1cc(C(F)(F)F)ncc1-c1ccc(C2(c3nc4cc(C(F)(F)F)cnc4[nH]3)COC2)cc1` [Example 45, [2-(trifluoromethyl)-5-(4-{3-[6-(trifluoromethyl)-3H-imidazo[4,5-b]pyridin-2-yl]oxetan-3-yl}phenyl)pyridin-4-yl]methanol], the pIC50 on IDO1 [1] is 7.81; on IDO1 [2], 5.57.

The record behind these values is patent US11208407B2, “Substituted phenyl compounds as indoleamine 2,3-dioxygenase (IDO) inhibitors” (Merck Sharp & Dohme Corp., priority 2017, dated 2021).
